Assay results as given in patent US10174037B2, “Dihydropyrazolopyrimidinone compounds as PDE2 inhibitors” (Merck Sharp & Dohme Corp., priority 2015, dated 2019).

Tests used:
Rhesus PDE2A3 = Rhesus PDE2A3 (Macaca mulatta, UniProt B3VTJ2); assay: PDE2 fluorescence polarization (IMAP FP) assay, rhesus PDE2A3; type: biochemical, rhesus macaque; conditions: Lab B, read-out: Rhesus PDE2 Ki (nM) Lab B
human PDE2A1 = human PDE2A1 (Homo sapiens (Human), UniProt O00408); assay: PDE selectivity IMAP FP assay, human PDE2A1; type: biochemical; conditions: Human PDE2; Lab B; read-out: Human PDE2 Ki (nM) Lab B
Outline: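 Compound titrations run against PDE2 in Tris HCl pH 7.2 buffer with MgCl2 and DTT for 60 min at room temperature, using 50 nM FAM-cAMP plus 1000 nM cGMP and enzyme giving 20% conversion.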

Sequence of human PDE2A1 (O00408 other isoform, or with tags, fused parts or gaps): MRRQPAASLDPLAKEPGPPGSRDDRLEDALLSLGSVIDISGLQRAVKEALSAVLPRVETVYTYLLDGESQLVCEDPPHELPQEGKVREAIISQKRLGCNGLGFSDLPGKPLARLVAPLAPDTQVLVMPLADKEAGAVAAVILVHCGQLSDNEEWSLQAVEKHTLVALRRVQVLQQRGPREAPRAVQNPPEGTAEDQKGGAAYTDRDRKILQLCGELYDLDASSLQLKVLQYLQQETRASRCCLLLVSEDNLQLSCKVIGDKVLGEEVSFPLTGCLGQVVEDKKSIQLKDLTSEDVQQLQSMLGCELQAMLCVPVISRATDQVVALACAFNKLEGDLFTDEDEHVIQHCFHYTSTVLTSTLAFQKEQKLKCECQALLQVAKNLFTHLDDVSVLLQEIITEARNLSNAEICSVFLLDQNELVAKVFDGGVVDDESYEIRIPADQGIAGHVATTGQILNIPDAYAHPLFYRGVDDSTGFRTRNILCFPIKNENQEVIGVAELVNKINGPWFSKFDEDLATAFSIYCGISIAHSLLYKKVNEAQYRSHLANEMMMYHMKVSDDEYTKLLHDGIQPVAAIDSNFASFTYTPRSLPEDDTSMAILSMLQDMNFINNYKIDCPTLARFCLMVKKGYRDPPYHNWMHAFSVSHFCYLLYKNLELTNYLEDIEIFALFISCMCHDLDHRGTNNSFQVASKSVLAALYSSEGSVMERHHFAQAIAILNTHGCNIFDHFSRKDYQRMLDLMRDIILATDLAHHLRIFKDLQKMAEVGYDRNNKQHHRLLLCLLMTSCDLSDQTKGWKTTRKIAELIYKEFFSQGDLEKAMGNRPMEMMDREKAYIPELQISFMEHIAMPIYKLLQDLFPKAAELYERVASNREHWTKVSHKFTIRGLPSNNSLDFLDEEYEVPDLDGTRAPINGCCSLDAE
Sequence of Rhesus PDE2A3 (B3VTJ2 1-941): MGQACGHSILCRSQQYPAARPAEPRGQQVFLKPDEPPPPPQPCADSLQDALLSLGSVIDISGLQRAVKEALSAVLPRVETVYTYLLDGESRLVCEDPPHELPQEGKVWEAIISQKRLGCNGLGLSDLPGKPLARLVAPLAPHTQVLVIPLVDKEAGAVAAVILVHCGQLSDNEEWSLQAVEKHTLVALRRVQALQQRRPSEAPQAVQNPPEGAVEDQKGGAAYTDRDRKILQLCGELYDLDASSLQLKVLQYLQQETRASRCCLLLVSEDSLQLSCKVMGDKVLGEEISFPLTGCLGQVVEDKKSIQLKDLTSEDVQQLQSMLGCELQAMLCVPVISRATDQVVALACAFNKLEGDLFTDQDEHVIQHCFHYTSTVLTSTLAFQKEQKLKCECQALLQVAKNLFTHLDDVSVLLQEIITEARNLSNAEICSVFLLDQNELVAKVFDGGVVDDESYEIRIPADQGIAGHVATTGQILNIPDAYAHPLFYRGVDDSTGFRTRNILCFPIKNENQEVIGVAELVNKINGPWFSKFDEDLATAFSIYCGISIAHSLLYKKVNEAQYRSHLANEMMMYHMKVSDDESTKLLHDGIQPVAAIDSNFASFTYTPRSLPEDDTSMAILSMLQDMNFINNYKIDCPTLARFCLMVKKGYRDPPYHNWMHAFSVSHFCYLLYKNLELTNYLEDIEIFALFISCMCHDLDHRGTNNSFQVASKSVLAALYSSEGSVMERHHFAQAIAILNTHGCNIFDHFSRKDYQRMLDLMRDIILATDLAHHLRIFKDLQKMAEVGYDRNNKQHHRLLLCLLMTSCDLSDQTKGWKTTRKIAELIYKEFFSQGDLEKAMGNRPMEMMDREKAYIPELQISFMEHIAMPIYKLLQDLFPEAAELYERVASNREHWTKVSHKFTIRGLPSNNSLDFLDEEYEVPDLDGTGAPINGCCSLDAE

CN(C)c1nc2c(c(CF)nn2C(c2ccc(C(F)(F)F)cc2)C2CC2)c(=O)[nH]1 (single isomer, unassigned) [Example 179, (S)- or (R)-1-(Cyclopropyl(4-(trifluoromethyl)phenyl)methyl)-6-(dimethylamino)-3-(fluoromethyl)-1H-pyrazolo[3,4-d]pyrimidin-4(5H)-one]
Ki (Rhesus PDE2A3): 0.072 nM
Ki (human PDE2A1): 0.072 nM

CN(C)c1nc2c(c(CF)nn2C(c2ccc(C(F)(F)F)c(F)c2)C2CC2)c(=O)[nH]1 (single isomer, unassigned) [Example 181, (S)- or (R)-1-(Cyclopropyl(3-fluoro-4-(trifluoromethyl)phenyl)methyl)-6-(dimethylamino)-3-(fluoromethyl)-1H-pyrazolo[3,4-d]pyrimidin-4(5H)-one]
Ki (Rhesus PDE2A3): 0.11 nM
Ki (human PDE2A1): 0.058 nM

CC(C)c1ccc(C(C2CC2)n2nc(CF)c3c(=O)[nH]c(N(C)C)nc32)cc1 (single isomer, unassigned) [Example 183, (R)- or (S)-1-(Cyclopropyl(4-isopropylphenyl)methyl)-6-(dimethylamino)-3-(fluoromethyl)-1H-pyrazolo[3,4-d]pyrimidin-4(5H)-one]
Ki (Rhesus PDE2A3): 0.082 nM
Ki (human PDE2A1): 0.064 nM

CC(C)C(c1ccc(OC(F)F)cc1)n1nc(CF)c2c(=O)[nH]c(N(C)C)nc21 (single isomer, unassigned) [Example 184, (R)- or (S)-1-(1-(4-(Difluoromethoxy)phenyl)-2-methylpropyl)-6-(dimethylamino)-3-(fluoromethyl)-1H-pyrazolo[3,4-d]pyrimidin-4(5H)-one]
Ki (Rhesus PDE2A3): 0.24 nM
Ki (human PDE2A1): 0.19 nM

CC(C)C(c1ccc(OC(F)F)cc1)n1nc(CF)c2c(=O)[nH]c(N(C)C)nc21 (single isomer, unassigned) [Example 185, (S)- or (R)-1-(1-(4-(Difluoromethoxy)phenyl)-2-methylpropyl)-6-(dimethylamino)-3-(fluoromethyl)-1H-pyrazolo[3,4-d]pyrimidin-4(5H)-one]
Ki (Rhesus PDE2A3): 0.16 nM
Ki (human PDE2A1): 0.12 nM

CC(c1ccc(C(F)(F)F)cc1F)n1nc(CF)c2c(=O)[nH]c(N(C)C)nc21 (single isomer, unassigned) [Example 186, (R)- or (S)-6-(Dimethylamino)-1-(1-(2-fluoro-4-(trifluoromethyl)phenyl)ethyl)-3-(fluoromethyl)-1H-pyrazolo[3,4-d]pyrimidin-4(5H)-one]
Ki (Rhesus PDE2A3): 0.14 nM
Ki (human PDE2A1): 0.13 nM

CN(C)c1nc2c(c(CF)nn2C(c2ccc(OC(F)F)c(F)c2)C2CC2)c(=O)[nH]1 (single isomer, unassigned) [Example 188, (R)- or (S)-1-(Cyclopropyl(4-(difluoromethoxy)-3-fluorophenyl)methyl)-6-(dimethylamino)-3-(fluoromethyl)-1H-pyrazolo[3,4-d]pyrimidin-4(5H)-one]
Ki (Rhesus PDE2A3): 0.41 nM
Ki (human PDE2A1): 0.35 nM

CN(C)c1nc2c(c(CF)nn2C(c2ccc(OC(F)F)c(F)c2)C2CC2)c(=O)[nH]1 (single isomer, unassigned) [Example 189, (S)- or (R)-1-(Cyclopropyl(4-(difluoromethoxy)-3-fluorophenyl)methyl)-6-(dimethylamino)-3-(fluoromethyl)-1H-pyrazolo[3,4-d]pyrimidin-4(5H)-one]
Ki (Rhesus PDE2A3): 0.62 nM
Ki (human PDE2A1): 0.35 nM

CC(c1ccc(C(F)F)cc1)n1nc(CF)c2c(=O)[nH]c(N(C)C)nc21 (single isomer, unassigned) [Example 191, (S)- or (R)-1-(1-(4-(Difluoromethyl)phenyl)ethyl)-6-(dimethylamino)-3-(fluoromethyl)-1H-pyrazolo[3,4-d]pyrimidin-4(5H)-one]
Ki (Rhesus PDE2A3): 0.42 nM
Ki (human PDE2A1): 0.38 nM

CN(C)c1nc2c(c(CF)nn2C(c2ccc(CC(F)(F)F)cc2)C2CC2)c(=O)[nH]1 (single isomer, unassigned) [Example 192, (R)- or (S)-1-(Cyclopropyl(4-(2,2,2-trifluoroethyl)phenyl)methyl)-6-(dimethylamino)-3-(fluoromethyl)-1H-pyrazolo[3,4-d]pyrimidin-4(5H)-one]
Ki (Rhesus PDE2A3): 0.42 nM
Ki (human PDE2A1): 0.41 nM

CN(C)c1nc2c(c(CF)nn2C(c2ccc(CC(F)(F)F)cc2)C2CC2)c(=O)[nH]1 (single isomer, unassigned) [Example 193, (S)- or (R)-1-(Cyclopropyl(4-(2,2.2-trifluoroethyl)phenyl)methyl)-6-(dimethylamino)-3-(fluoromethyl)-1H-pyrazolo[3,4-d]pyrimidin-4(5H)-one]
Ki (Rhesus PDE2A3): 0.41 nM
Ki (human PDE2A1): 0.39 nM

CC(c1ccc(C(C)(F)F)cc1)n1nc(CF)c2c(=O)[nH]c(N(C)C)nc21 (single isomer, unassigned) [Example 195, (S)- or (R)-1-(1-(4-(1,1-Difluoroethyl)phenyl)ethyl)-6-(dimethylamino)-3-(fluoromethyl)-1H-pyrazolo[3,4-d]pyrimidin-4(5H)-one]
Ki (Rhesus PDE2A3): 0.14 nM
Ki (human PDE2A1): 0.17 nM

CC(c1ccc(C(F)F)c(F)c1)n1nc(CF)c2c(=O)[nH]c(N(C)C)nc21 (single isomer, unassigned) [Example 196, (R)- or (S)-1-(1-(4-(Difluoromethyl)-3-fluorophenyl)ethyl)-6-(dimethylamino)-3-(fluoromethyl)-1H-pyrazolo[3,4-d]pyrimidin-4(5H)-one]
Ki (Rhesus PDE2A3): 0.59 nM
Ki (human PDE2A1): 0.31 nM

CCC(c1ccc(C(F)(F)F)cc1F)n1nc(CF)c2c(=O)[nH]c(N(C)C)nc21 (single isomer, unassigned) [Example 198, (R)- or (S)-6-(Dimethylamino)-1-(1-(2-fluoro-4-(trifluoromethyl)phenyl)propyl)-3-(fluoromethyl)-1H-pyrazolo[3,4-d]pyrimidin-4(5H)-one]
Ki (Rhesus PDE2A3): 0.068 nM
Ki (human PDE2A1): 0.048 nM

CC(C)C(c1ccc(C(F)(F)F)cc1F)n1nc(CF)c2c(=O)[nH]c(N(C)C)nc21 (single isomer, unassigned) [Example 200, (R)- or (S)-6-(Dimethylamino)-1-(1-(2-fluoro-4-(trifluoromethyl)phenyl)-2-methylpropyl)-3-(fluoromethyl)-1H-pyrazolo[3,4-d]pyrimidin-4(5H)-one]
Ki (Rhesus PDE2A3): 0.07 nM
Ki (human PDE2A1): 0.041 nM

CN(C)c1nc2c(c(CF)nn2C(c2ccc(C(F)(F)F)cc2F)C2CC2)c(=O)[nH]1 (single isomer, unassigned) [Example 202, (R)- or (S)-1-(Cyclopropyl(2-fluoro-4-(trifluoromethyl)phenyl)methyl)-6-(dimethylamino)-3-(fluoromethyl)-1H-pyrazolo[3,4-d]pyrimidin-4(5H)-one]
Ki (Rhesus PDE2A3): 0.058 nM
Ki (human PDE2A1): 0.042 nM

CN(C)c1nc2c(c(CF)nn2C(c2ccc(C(F)(F)F)cc2F)C2CC2)c(=O)[nH]1 (single isomer, unassigned) [Example 203, (S)- or (R)-1-(Cyclopropyl(2-fluoro-4-(trifluoromethyl)phenyl)methyl)-6-(dimethylamino)-3-(fluoromethyl)-1H-pyrazolo[3,4-d]pyrimidin-4(5H)-one]
Ki (Rhesus PDE2A3): 0.74 nM
Ki (human PDE2A1): 0.61 nM

CCC(c1ccc(C(C)(F)F)cc1)n1nc(CF)c2c(=O)[nH]c(N(C)C)nc21 (single isomer, unassigned) [Example 205, (S)- or (R)-1-(1-(4-(1,1-Difluoroethyl)phenyl)propyl)-6-(dimethylamino)-3-(fluoromethyl)-1H-pyrazolo[3,4-d]pyrimidin-4(5H)-one]
Ki (Rhesus PDE2A3): 0.072 nM
Ki (human PDE2A1): 0.038 nM
